Source: paper PMC9180926, “Discovery of Novel 3-Hydroxyquinazoline-2,4(1H,3H)-Dione Derivatives: A Series of Metal Ion Chelators with Potent Anti-HCV Activities” (International Journal of Molecular Sciences, 2022)
Where two headings read alike, the source gives them in different places.

What was measured:
[1] = system: HCV 1b replicon cells (Huh-7.5.1); assay: Anti-HCV assay, HCV 1b replicon cells with luciferase reporter; format: cell-based, hepatitis C virus (HCV) subtype 1b; conditions: for inhibition at 10 µM / inhibition at 25 µM: Huh-7.5.1, 72 h; for inhibition at 10 µM: read-out: HCV Inhibition 10 μM; for inhibition at 25 µM: read-out: HCV Inhibition 25 μM; for EC50: mean ± SD; for HCV inhibition at the tested concentrations: at the tested concentrations (25 μM and 10 μM)
Experimental: (§1) The HCV replicons were validated as convenient and effective models for testing the anti-HCV activity. Since HCV subtype 1b is one of the major subtypes worldwide, especially in China, the replicon model from the Huh-7.5.1 cell line integrating HCV 1b genome encoding the nonstructural proteins was chosen to evaluate the anti-HCV activities of 3-hydroxyquinazoline-2,4(1H,3H)-diones. The inhibitory rates of the compounds on HCV replicon cells were determined at concentrations of 25 μM and 10 μM, respectively. The broad-spectrum antiviral drug ribavirin (RBV) and the NS5B nucleoside inhibitor 2′-C-methyladenosine (2CMA) were selected as positive controls. The cytotoxicity of these compounds on replicon cells was determined using the cell counting kit-8 (CCK-8) assay.
HCV 1b replicon cells (Huh-7.5.1) containing luciferase reporter gene were kindly provided by Prof. Zhenghong Yuan (Key Laboratory of Medical Molecular Virology, Fudan University, Shanghai, China). The replicon cells were plated at 1.5 × 10^4 cells per well in a 48-well plate (Corning Inc., New York, NY, USA) at 5% CO2/37 °C. The culture medium was Dulbecco’s Modified Eagle Medium (DMEM, pH 7.3, Shanghai XP Biomed Ltd., Shanghai, China) containing 10% fetal bovine serum (Shanghai XP Biomed Ltd., Shanghai, China), 10^5 U/L penicillin, 0.1 g/L streptomycin, and 0.5 μg/mL blasticidin. After 12 h, the culture medium in each well was replaced with 300 μL of pre-prepared fresh culture medium containing test compound (dissolved in DMSO with specific concentration) or blank DMSO. The final concentration of DMSO in the culture medium in the plate was 0.1%. Each group was tested at least twice in parallel. Ribavirin and 2CMA were used as the positive controls. After incubating the drug-added plate at 5% CO2/37 °C for 72 h, the medium was removed, and each well was washed with 300 μL of phosphate buffer solution (PBS, Shanghai XP Biomed Ltd., Shanghai, China). The cells in each well were then lysed with 50 μL of 1× lysis buffer (E2820, Promega, Madison, WI, USA). Subsequently, 50 μL of 1× luciferase assay substrate (E2820, Promega, Madison, WI, USA) was mixed with 20 μL of the harvested cell lysates.
The inhibitory rates under at least six different concentration gradients were imported into GraphPad Prism 7.0 software to calculate the anti-HCV EC50 values of the compounds using the nonlinear fitting method.

[2] = Cytotoxicity assay (CCK-8) on replicon cells; format: cell-based; conditions: human, HCV 1b replicon cells (Huh-7.5.1); 50% cytotoxic concentration; CCK-8, HCV 1b replicon cells, 72 h
Experimental: as §1
The HCV 1b replicon cells were incubated and treated with test compounds or blank DMSO in a 48-well plate using the same materials and methods as described in the experimental procedure of anti-HCV assay. The final concentration of DMSO in each well was 0.1%. After 72 h of drug treatment, the culture medium in the well plate was removed, and cells in each well were washed with 300 μL of PBS. A total of 300 μL of pre-prepared fresh culture medium containing 30 μL CCK-8 reagent (Donjindo, Kumamoto, Japan) was added to each well, and the plate was incubated at 5% CO2/37 °C for 2 h. The OD (optical density) value of each well at 450 nm was measured using a multi-function microplate reader (SpectraMax M5, Molecular Devices, San Jose, CA, USA). The death ratio of each well was calculated using the following equation, in which ODcompound or ODblank represents the measured OD value of the compound group or the blank control (DMSO), respectively:death ratio = (1−ODcompound/ODblank) × 100%(2)
The cell death data under at least six different concentration gradients were imported into GraphPad Prism 7.0.0 software (GraphPad Software Inc., San Diego, CA, USA), and the CC50 (50% cytotoxic concentration) values were calculated using the nonlinear fitting method.

[3] = Hepatitis C virus, inhibitory rate at 10 μM, HCV 1b replicon cells, 72 h
[4] = Hepatitis C virus, inhibitory rate at 25 μM, HCV 1b replicon cells, 72 h
[5] = Hepatitis C virus, Huh-7.5.1, 50% effective concentration, HCV 1b replicon cells
[6] = 50% effective concentration, HCV 1b replicon cells

SMILES	inhibition at 10 µM [1, 3] [%]	inhibition at 25 µM [1, 4] [%]	also measured
O=c1[nH]c2ccccc2c(=O)n1O [10a, 3-Hydroxyquinazoline-2,4(1H,3H)-dione]	–	–	inhibition at 10 µM ([1]; Hepatitis C virus): -3%; inhibition at 25 µM ([1]; Hepatitis C virus): 36%
O=c1c2ccccc2n(CCCc2ccccc2)c(=O)n1O [10b, 3-Hydroxy-1-(3-phenylpropyl)quinazoline-2,4(1H,3H)-dione]	28.6	40.9	–
O=C(Cn1c(=O)n(O)c(=O)c2ccccc21)c1ccccc1 [10e, 3-Hydroxy-1-(2-oxo-2-phenylethyl)quinazoline-2,4(1H,3H)-dione]	46.1	68	EC50 [1, 5]: 11.3 ± 3 µM; CC50 at 72 h [2]: 13.1 ± 1.7 µM
O=C(Cn1c(=O)n(O)c(=O)c2ccccc21)NCCc1ccccc1 [10f, 2-(3-Hydroxy-2,4-dioxo-3,4-dihydroquinazolin-1(2H)-yl)-N-phenethylacetamide]	13.3	≤ 50	–
O=C(Cn1c(=O)n(O)c(=O)c2ccccc21)NCC1CC1 [10g, N-(Cyclopropylmethyl)-2-(3-hydroxy-2,4-dioxo-3,4-dihydroquinazolin-1(2H)-yl)acetamide]	10.6	15	HCV inhibition at the tested concentrations [1]: less than 30%
O=C(Cn1c(=O)n(O)c(=O)c2ccccc21)NCc1ccccc1 [10h, N-Benzyl-2-(3-hydroxy-2,4-dioxo-3,4-dihydroquinazolin-1(2H)-yl)acetamide]	1.3	≤ 50	–
CCCCNC(=O)Cn1c(=O)n(O)c(=O)c2ccccc21 [10i, N-Butyl-2-(3-hydroxy-2,4-dioxo-3,4-dihydroquinazolin-1(2H)-yl)acetamide]	26.5	22.9	HCV inhibition at the tested concentrations [1]: less than 30%
O=C(Cn1c(=O)n(O)c(=O)c2ccccc21)Nc1ccccc1 [10j, 2-(3-Hydroxy-2,4-dioxo-3,4-dihydroquinazolin-1(2H)-yl)-N-phenylacetamide]	30.1	62.7	–
O=C(Cn1c(=O)n(O)c(=O)c2ccccc21)NCc1c(Cl)cccc1Cl [10k, N-(2,6-Dichlorobenzyl)-2-(3-hydroxy-2,4-dioxo-3,4-dihydroquinazolin-1(2H)-yl)acetamide]	43.7	54.7	–
O=C(Cn1c(=O)n(O)c(=O)c2ccccc21)NCc1cccc(F)c1 [10l, N-(3-Fluorobenzyl)-2-(3-hydroxy-2,4-dioxo-3,4-dihydroquinazolin-1(2H)-yl)acetamide]	22.4	45.5	–
O=C(Cn1c(=O)n(O)c(=O)c2ccccc21)NCc1ccc(F)cc1 [10m, N-(4-Fluorobenzyl)-2-(3-hydroxy-2,4-dioxo-3,4-dihydroquinazolin-1(2H)-yl)acetamide]	12.7	58.4	–
N#Cc1ccc(NC(=O)Cn2c(=O)n(O)c(=O)c3ccccc32)cc1 [10n, N-(4-Cyanophenyl)-2-(3-hydroxy-2,4-dioxo-3,4-dihydroquinazolin-1(2H)-yl)acetamide]	58	66	EC50 [1, 6]: 6.4 ± 0.3 µM; EC50 [1, 5]: < 10 µM; CC50 at 72 h [2]: 10.6 ± 0.3 µM
COc1ccc(NC(=O)Cn2c(=O)n(O)c(=O)c3ccccc32)cc1 [10o, 2-(3-Hydroxy-2,4-dioxo-3,4-dihydroquinazolin-1(2H)-yl)-N-(4-methoxyphenyl)acetamide]	16.9	67.5	–
O=C(Cn1c(=O)n(O)c(=O)c2ccccc21)Nc1ccc(C(F)(F)F)cc1 [10p, 2-(3-Hydroxy-2,4-dioxo-3,4-dihydroquinazolin-1(2H)-yl)-N-(4-(trifluoromethyl)phenyl)acetamide]	41.4	64.9	EC50 [1, 6]: 8.1 ± 0.1 µM; EC50 [1, 5]: < 10 µM; CC50 at 72 h [2]: 15.3 ± 0.7 µM
O=c1[nH]c2cc(Cc3ccccc3)ccc2c(=O)n1O [18a, 7-Benzyl-3-hydroxyquinazoline-2,4(1H,3H)-dione]	28.6	59.8	–
Cn1c(=O)n(O)c(=O)c2ccc(Cc3ccccc3)cc21 [18b, 7-Benzyl-3-hydroxy-1-methylquinazoline-2,4(1H,3H)-dione]	23	–	–
Cn1c(=O)n(O)c(=O)c2ccc(Cc3cc(F)cc(F)c3)cc21 [18c, 7-(3,5-Difluorobenzyl)-3-hydroxy-1-methylquinazoline-2,4(1H,3H)-dione]	39.5	–	–
COc1ccc(-c2ccc3c(=O)n(O)c(=O)[nH]c3c2)cc1 [21i, 3-Hydroxy-7-(4-methoxyphenyl)quinazoline-2,4(1H,3H)-dione]	64.7	–	EC50 [1, 5]: 3.4 ± 0.1 µM; CC50 at 72 h [2]: 5.6 ± 0.5 µM
O=c1[nH]c2cc(-c3cc(F)cc(F)c3)ccc2c(=O)n1O [21m, 7-(3,5-Difluorophenyl)-3-hydroxyquinazoline-2,4(1H,3H)-dione]	48.2	–	–
O=c1[nH]c2cc(-c3ccc(F)cc3F)ccc2c(=O)n1O [21n, 7-(2,4-Difluorophenyl)-3-hydroxyquinazoline-2,4(1H,3H)-dione]	69.7	–	EC50 [1, 5]: 3.9 ± 0.3 µM; CC50 at 72 h [2]: 11.2 ± 1.4 µM
COc1ccc(-c2ccc3c(=O)n(O)c(=O)[nH]c3c2)cc1F [21o, 7-(3-Fluoro-4-methoxyphenyl)-3-hydroxyquinazoline-2,4(1H,3H)-dione]	71.3	–	EC50 [1, 5]: 3.9 ± 2.2 µM; CC50 at 72 h [2]: 4.3 ± 0.4 µM
O=c1[nH]c2cc(-c3cc(F)c(F)c(F)c3)ccc2c(=O)n1O [21q, 3-Hydroxy-7-(3,4,5-trifluorophenyl)quinazoline-2,4(1H,3H)-dione]	26.8	5.4	–
O=c1[nH]c2c(-c3ccc(F)cc3)cccc2c(=O)n1O [21v, 8-(4-Fluorophenyl)-3-hydroxyquinazoline-2,4(1H,3H)-dione]	23.5	44.5	–
COc1ccc(-c2cccc3c(=O)n(O)c(=O)[nH]c23)cc1 [21w, 3-Hydroxy-8-(4-methoxyphenyl)quinazoline-2,4(1H,3H)-dione]	11.5	36.4	–
O=c1[nH]c2c(-c3ccc(C(F)(F)F)cc3)cccc2c(=O)n1O [21x, 3-Hydroxy-8-(4-(trifluoromethyl)phenyl)quinazoline-2,4(1H,3H)-dione]	16.4	47.5	–
CCCn1c(=O)n(O)c(=O)c2cc(-c3ccccc3)ccc21 [23f, 3-Hydroxy-6-phenyl-1-propylquinazoline-2,4(1H,3H)-dione]	26.7	28	–
CCCn1c(=O)n(O)c(=O)c2ccc(-c3ccccc3)cc21 [23g, 3-Hydroxy-7-phenyl-1-propylquinazoline-2,4(1H,3H)-dione]	-2.2	67.4	–
O=c1c2cc(-c3ccccc3)ccc2n(Cc2ccccc2)c(=O)n1O [23h, 1-Benzyl-3-hydroxy-6-phenylquinazoline-2,4(1H,3H)-dione]	7.8	2	–
O=c1c2ccc(-c3ccccc3)cc2n(Cc2ccccc2)c(=O)n1O [23i, 1-Benzyl-3-hydroxy-7-phenylquinazoline-2,4(1H,3H)-dione]	-6.5	4.8	–
